This note sets out measurements from patent US20080161307A1, “Organic Compounds” (priority 2005, published 2008).

The experiment relates to healthy male volunteers. Kind of experiment: Randomized, double-blind, placebo-controlled gastric emptying study (99Tc radiolabeled meal, external scintigraphy). Format: in vivo, human. The procedure:
Methodology: This is a single center, double-blind, randomized, parallel group trial using a placebo control or tegaserod 6 mg t.i.d. in combination with omeprazole 20 mg b.i.d. Gastric emptying is assessed using a standardized method that has been previously validated and found to be sensitive and specific. After an overnight fast, the subjects are asked to ingest a standardized ^99Tc radiolabeled meal (250 ml EggBeater, the equivalent of two eggs, two slices of white bread, 30 cc of strawberry jam and 120 ml of water). The level of radioactivity in gastric contents is measured by external scintigraphy immediately following completion of the meal and then at 60, 120 and 240 minutes after the end of the meal.
Number of subjects: 40 healthy male volunteers (20 per group)
Investigational drug: Tegaserod 6 mg tablets (supplied by Novartis Canada, but are normal 6 mg Zelnorm tablet obtainable as prescription) for oral administration. Each dose consists of a tablet to be taken with a glass of water within 15-30 minutes before mealtime three times daily. […]
Efficacy: The primary efficacy parameter is time to half emptying (T1/2) of gastric contents. The secondary efficacy endpoints were the calculated lag phase, and percent of gastric contents remaining in the stomach at 60, 120 and 240 minutes after ingestion of a standard meal. […]

Structures are written as SMILES.

Regarding `CCCCCNC(=N)N/N=C/c1c[nH]c2ccc(OC)cc12` [tegaserod, 3-(5-methoxy-1H-indol-3-yl-methylene)-N-pentylcarbazimidamide], under “tegaserod 6 mg t.i.d. in combination with omeprazole 20 mg b.i.d., oral, 14 days”, the “gastric emptying at all the studied time points versus baseline” value is “not statistically different from the respective baseline values”. Besides, the “development of delayed gastric emptying caused by omeprazole” value (tegaserod added to omeprazole, healthy male volunteers) is reported as “prevented development of delayed gastric emptying”.
